In PMC4778918, “Signal Transduction at the Domain Interface of Prokaryotic Pentameric Ligand-Gated Ion Channels” (PLoS Biology, 2016):

Key:
ELIC T28D = ELIC T28D (Dickeya chrysanthemi, UniProt P0C7B7, INS163G/T28D); assay: biochemical; type: binding, Erwinia chrisanthemi; conditions: read-out: Keff
ELIC WT = ELIC WT (Dickeya chrysanthemi, UniProt P0C7B7, INS163G); assay: biochemical; type: binding, Erwinia chrisanthemi; conditions: ITC, ELIC WT in detergent (UDM), 4°C, single-site isotherm; read-out: effective dissociation constant (Keff)

In the case of CC(=O)OCC[N+](C)(C)C [acetylcholine], the Kd (ELIC T28D) is reported as 2000 µM and the Kd (ELIC WT) is reported as 2500 µM.
